Source: ChEMBL document CHEMBL1201862, “PubChem BioAssay data set” (2004)
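Method: 48-hour compound exposure of cells in 96-well plates, five concentrations, linear interpolation of endpoints. GI50 marks 50% less growth.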 The source made the active and inactive calls. Rule as the data show it: active = GI50 up to about 1.1 µM and inactive = higher.

Columns and labels:
Assay in all cases: DTP human tumour cell line panel, 48 h
NCI-H226 = test system: NCI-H226
OVCAR-4 = test system: OVCAR-4
NCI-H522 = test system: NCI-H522
PC-3 = test system: PC-3
HT-29 = test system: HT-29
SR = test system: SR
MCF7 = test system: MCF7
UO-31 = test system: UO-31
HCT-15 = test system: HCT-15
SF-268 = test system: SF-268
786-0 = test system: 786-0
BT-549 = test system: BT-549
MDA-N = test system: MDA-N
OVCAR-5 = test system: OVCAR-5
UACC-257 = test system: UACC-257
RPMI-8226 = test system: RPMI-8226
MOLT-4 = test system: MOLT-4
M14 = test system: M14
NCI/ADR-RES = test system: NCI/ADR-RES
LXFL 529 = test system: LXFL 529

Row | Structure (SMILES) | GI50 (NCI-H226) | GI50 (OVCAR-4) | GI50 (NCI-H522) | GI50 (PC-3) | GI50 (HT-29) | GI50 (SR) | GI50 (MCF7) | GI50 (UO-31) | GI50 (HCT-15) [µM] | GI50 (SF-268) | GI50 (786-0) | GI50 (BT-549) | GI50 (MDA-N) | GI50 (OVCAR-5) | GI50 (UACC-257) | GI50 (RPMI-8226) | GI50 (MOLT-4) | GI50 (M14) | GI50 (NCI/ADR-RES) | GI50 (LXFL 529)
1 | Nc1nc(O)c2[nH]cnc2[n+]1[O-] | > 100 µM (inactive) | > 100 µM (inactive) | > 100 µM (inactive) | > 100 µM (inactive) | > 100 µM (inactive) | 75.3 µM (inactive) | 37.1 µM (inactive) | > 100 µM (inactive) | > 100 | > 100 µM (inactive) | > 100 µM (inactive) | > 100 µM (inactive) | > 100 µM (inactive) | > 100 µM (inactive) | > 100 µM (inactive) | > 100 µM (inactive) | > 100 µM (inactive) | > 100 µM (inactive) | > 100 µM (inactive) | –
2 | O=C1C=C(OCCCl)C(=O)c2c(O)ccc(O)c21 | 2.26 µM (inactive) | 1.64 µM (inactive) | 2.32 µM (inactive) | 1.82 µM (inactive) | 0.378 µM (active) | 0.861 µM (active) | 0.216 µM (active) | 1.42 µM (inactive) | 0.209 | 0.931 µM (active) | 1.62 µM (inactive) | 0.226 µM (active) | 0.17 µM (active) | 1.59 µM (inactive) | 0.177 µM (active) | 2.08 µM (inactive) | 1.72 µM (inactive) | 0.177 µM (active) | 2.56 µM (inactive) | –
3 | O=C(c1ccsc1)c1cc2c(s1)C(=O)c1ccsc1C2=O | 0.552 µM (active) | 0.177 µM (active) | 0.137 µM (active) | 0.29 µM (active) | 0.676 µM (active) | 1.87 µM (inactive) | 0.182 µM (active) | 0.0893 µM (active) | 0.155 | 0.165 µM (active) | 0.189 µM (active) | 0.0807 µM (active) | 0.0237 µM (active) | 0.552 µM (active) | 0.174 µM (active) | 0.136 µM (active) | 0.435 µM (active) | 0.116 µM (active) | 0.137 µM (active) | –
4 | O=C1/C(=C/c2ccccc2[N+](=O)[O-])N=C(c2ccccc2)N1C1Nc2cc3c(cc2S1)NC(N1C(=O)/C(=C/c2ccccc2[N+](=O)[O-])N=C1c1ccccc1)S3 (centres undefined) | 31.5 µM (inactive) | 53.5 µM (inactive) | 17.3 µM (inactive) | 32.9 µM (inactive) | 36.2 µM (inactive) | 8.51 µM (inactive) | 18.7 µM (inactive) | 24.1 µM (inactive) | 32.8 | 47.3 µM (inactive) | 22.3 µM (inactive) | 40.4 µM (inactive) | 36.8 µM (inactive) | > 100 µM (inactive) | 91 µM (inactive) | 18.1 µM (inactive) | 19.3 µM (inactive) | 68.5 µM (inactive) | 25.3 µM (inactive) | –
5 | C=C(CCC/C(C)=C/C=C/[C@@H](C)CCCc1ccoc1)C[C@@H]1OC(=O)[C@H](C)[C@@H]1O | 6.43 µM (inactive) | 10.2 µM (inactive) | 7.08 µM (inactive) | 7.31 µM (inactive) | > 50 µM (inactive) | 10.7 µM (inactive) | 7.89 µM (inactive) | 7.85 µM (inactive) | 10.1 | 9.31 µM (inactive) | 10.8 µM (inactive) | 8.95 µM (inactive) | 9.73 µM (inactive) | 18.4 µM (inactive) | 6.35 µM (inactive) | 12.8 µM (inactive) | 16.1 µM (inactive) | 9.33 µM (inactive) | 9.04 µM (inactive) | –
6 | CCCCCCCCOCC(O)COC (centres undefined) | > 100 µM (inactive) | > 100 µM (inactive) | – | – | > 100 µM (inactive) | > 100 µM (inactive) | – | > 100 µM (inactive) | > 100 | > 100 µM (inactive) | > 100 µM (inactive) | – | – | > 100 µM (inactive) | 69.7 µM (inactive) | > 100 µM (inactive) | > 100 µM (inactive) | > 100 µM (inactive) | – | > 100 µM (inactive)
7 | COc1cc2cnc3c4cc(OC(C)C)c(OC)cc4ccc3c2cc1OC | – | > 100 µM (inactive) | > 100 µM (inactive) | – | > 100 µM (inactive) | – | – | > 100 µM (inactive) | > 100 | > 100 µM (inactive) | > 100 µM (inactive) | – | – | > 100 µM (inactive) | > 100 µM (inactive) | > 100 µM (inactive) | > 100 µM (inactive) | > 100 µM (inactive) | – | > 100 µM (inactive)
8 | FC(F)(Sc1nc2ccccc2[nH]1)c1nc2ccccc2o1 | > 100 µM (inactive) | > 100 µM (inactive) | 15.8 µM (inactive) | > 100 µM (inactive) | > 100 µM (inactive) | > 100 µM (inactive) | > 100 µM (inactive) | > 100 µM (inactive) | > 100 | > 100 µM (inactive) | > 100 µM (inactive) | 75.5 µM (inactive) | > 100 µM (inactive) | > 100 µM (inactive) | > 100 µM (inactive) | > 100 µM (inactive) | > 100 µM (inactive) | > 100 µM (inactive) | > 100 µM (inactive) | –
9 | Sc1ncc(-c2cncc(-c3cnc(S)nc3)n2)cn1 | > 100 µM (inactive) | > 100 µM (inactive) | > 100 µM (inactive) | > 100 µM (inactive) | > 100 µM (inactive) | 85.1 µM (inactive) | > 100 µM (inactive) | > 100 µM (inactive) | > 100 | > 100 µM (inactive) | > 100 µM (inactive) | > 100 µM (inactive) | > 100 µM (inactive) | > 100 µM (inactive) | > 100 µM (inactive) | > 100 µM (inactive) | > 100 µM (inactive) | > 100 µM (inactive) | > 100 µM (inactive) | –
10 | CC1(c2cccc(N)c2)C2C(=O)NC(=O)C1C(=O)NC2=O (centres undefined) | 28.1 µM (inactive) | 36.7 µM (inactive) | 19.7 µM (inactive) | – | 29.4 µM (inactive) | – | – | 22.3 µM (inactive) | 36.2 | 35.7 µM (inactive) | 38.3 µM (inactive) | – | – | 38.6 µM (inactive) | 37.9 µM (inactive) | 16 µM (inactive) | 18 µM (inactive) | 36.7 µM (inactive) | – | 32.2 µM (inactive)
11 | C/C(CN1C(=O)c2ccccc2C1=O)=N\NS(=O)(=O)c1cccc([N+](=O)[O-])c1 | > 100 µM (inactive) | > 100 µM (inactive) | > 100 µM (inactive) | – | > 100 µM (inactive) | – | – | > 100 µM (inactive) | > 100 | > 100 µM (inactive) | > 100 µM (inactive) | – | – | > 100 µM (inactive) | > 100 µM (inactive) | > 100 µM (inactive) | > 100 µM (inactive) | > 100 µM (inactive) | – | > 100 µM (inactive)
12 | CCC1(C(=O)OC)CCc2c(OC)ccc(OC)c2C1=O (centres undefined) | – | > 100 µM (inactive) | > 100 µM (inactive) | – | > 100 µM (inactive) | – | – | > 100 µM (inactive) | > 100 | > 100 µM (inactive) | > 100 µM (inactive) | – | – | > 100 µM (inactive) | > 100 µM (inactive) | > 100 µM (inactive) | > 100 µM (inactive) | > 100 µM (inactive) | – | > 100 µM (inactive)
13 | Cc1nc(Nc2ccc([N+](=O)[O-])cc2)sc1C(/C=C/c1ccc(N(C)C)cc1)=N/NC(=O)c1ccccc1 | 63 µM (inactive) | 76 µM (inactive) | 31 µM (inactive) | – | 39.1 µM (inactive) | 41.7 µM (inactive) | – | 89.3 µM (inactive) | 29.6 | 43 µM (inactive) | 85.9 µM (inactive) | – | – | > 100 µM (inactive) | 82.2 µM (inactive) | – | 41.9 µM (inactive) | 48.8 µM (inactive) | – | 29.1 µM (inactive)
14 | CCOC(=O)c1cn(Cc2ccccc2)c(=O)n1Cc1ccccc1 | > 100 µM (inactive) | > 100 µM (inactive) | > 100 µM (inactive) | – | > 100 µM (inactive) | – | – | 48.9 µM (inactive) | 80.2 | > 100 µM (inactive) | > 100 µM (inactive) | – | – | > 100 µM (inactive) | > 100 µM (inactive) | 40.2 µM (inactive) | 35 µM (inactive) | > 100 µM (inactive) | – | > 100 µM (inactive)
15 | CCC12CC[C@H](C#N)N3CCc4c(n(c5ccccc45)C(=O)C1)C32 (some centres undefined) | – | 12.1 µM (inactive) | – | – | 14.2 µM (inactive) | – | – | 3.1 µM (inactive) | 5.2 | 17.9 µM (inactive) | 16.9 µM (inactive) | – | – | 21.5 µM (inactive) | 14 µM (inactive) | 17.9 µM (inactive) | 15 µM (inactive) | 16.4 µM (inactive) | – | 16.6 µM (inactive)
16 | O=C(CBr)NCCc1c[nH]c2ccccc12 | 0.655 µM (active) | 1.79 µM (inactive) | 0.229 µM (active) | 1.99 µM (inactive) | 1.83 µM (inactive) | 0.344 µM (active) | 2 µM (inactive) | 1.72 µM (inactive) | 1.76 | 2.16 µM (inactive) | 1.4 µM (inactive) | 1.77 µM (inactive) | 2.02 µM (inactive) | 1.87 µM (inactive) | 3.01 µM (inactive) | 1.97 µM (inactive) | 0.406 µM (active) | 1.66 µM (inactive) | 2.11 µM (inactive) | –
17 | C[C@]12CC[C@H](O)C[C@H]1CC[C@@H]1[C@@H]2CC[C@]2(C)[C@@H](C3=CC(=O)OC3)[C@@H](O)C[C@]12O [GITOXIGENIN] | 3.12 µM (inactive) | 1.4 µM (inactive) | 0.435 µM (active) | 1.44 µM (inactive) | 3.27 µM (inactive) | 0.977 µM (active) | 2.05 µM (inactive) | 0.914 µM (active) | 2.58 | 0.845 µM (active) | 0.995 µM (active) | 1.89 µM (inactive) | 2.42 µM (inactive) | 2.81 µM (inactive) | 2.2 µM (inactive) | 2.77 µM (inactive) | 0.408 µM (active) | 2.45 µM (inactive) | 1.61 µM (inactive) | –
